Experimental data as given in patent publication US11090292B2, “Compositions and methods of use of an inappetance-controlling compound” (Aratana Therapeutics, Inc., priority 2012, dated 2021).
Where two headings read alike, the source gives them in different places.

Experiments:
[1] = Example 12 cat probe formulation study and pharmacokinetic analysis; assay type: in vivo, cats; conditions: for peak in serum concentration of capromorelin / time post administration of peak serum concentration: Day 0
Experimental: Similar to some of the other pharmacokinetic analyses conducted in dogs and cats, an additional pharmacokinetic study was conducted in cats to assess capromorelin formulations that allow sufficient drug to circulate to produce appetite stimulation and to define the capromorelin pharmacokinetic profile in cats. Briefly, twelve cats were randomized into Group 1 (six cats) and Group 2 (six cats). Group 1 received an intravenous formulation that included 0.75 mg/kg of capromorelin dissolved in sterile water and Group 2 received a previously tested formulation via oral gavage. Food consumption was determined daily for all cats. Specifically, animals were offered feed at approximately 11:00 AM, with the removal of feed at approximately 3:00 PM. Upon removal of feed, the amount consumed was calculated. […] Initially, the cats were given a seven day acclimation period to adjust to the experimental conditions and feed provided. After the acclimation period, on Day 0, all animals in Group 1 received an intravenous injection of the composition containing a dose of 0.75 mg/kg of capromorelin. On Day 0, the animals in Group 2 received an oral administration of the formulation via gavage at a dose of 3 mg/kg of capromorelin. On Day 0, serum samples were taken from the Group 1 animals at time 0 (pre-administration) and 5 minutes, 10 minutes, 30 minutes, 1 h, 2 h, 4 h, 6 h, 8 h, and 12 h post administration and serum samples were also taken from the Group 2 animals at time 0 (per-administration) and 15 minutes, 30 minutes, 45 minutes, 1 h, 2 h, 4 h, 6 h, 8 h, and 12 h post administration.

[2] = Example 1 seven-day dosing regimen study: food consumption and body weight; assay type: in vivo, Beagle dogs
Experimental: A controlled, seven-day study was performed to assess the impact of different capromorelin-dosing regimens on the production of insulin-like growth factor 1 (hereinafter “IGF-1”), growth hormone (hereinafter “GH”), and cortisol. The different capromorelin-dosing regimens were also assessed for the impact on food intake and changes in body mass.
Eighteen adult non-naïve Beagle dogs (nine males and nine females) were divided into one of three treatment groups. Each of the three treatment groups included three males and three females. Group A, which was the control group, was dosed twice per day, via oral gavage, with a vehicle (deionized water alone) and was used as a baseline data point for comparison against the active treatment regimens. Group B comprised an active treatment group that received two treatments per day, via oral gavage, with a capromorelin-containing composition with a concentration of 3 mg/kg capromorelin per treatment. Finally, Group C comprised an active treatment group that received one treatment per day, via oral gavage, with a capromorelin-containing composition with a concentration of 6 mg/kg capromorelin per treatment.
(§1) During the ten day study period, on an at least once-daily basis, each of the dogs was monitored for clinical observations, mortality, morbidity, body mass, and food consumption. Serum samples were taken to measure capromorelin concentration, GH concentration, IGF-1 concentration, and cortisol concentration. Serum samples were taken on days 1, 2, 4, and 7 at −15 minutes (pre-dose), immediately prior to dosing (0 minutes) and 30, 45, 60, 90, 120, 240, 360, and/or 480 minutes post dosing. Additional blood samples were taken at 8 AM on Day 10 of the study to assess long-term impact of the active treatments.

[3] = Example 4: clinical observations / toxicological responses; assay type: in vivo; conditions: 3 mg/kg once or twice daily, 7 days
Experimental: as §1, with “moribundity,” for “morbidity,”, “mass, acceptability/palatability,” for “mass,”, “serum” for “blood”

growth hormone = experiment: Example 5: serum growth hormone; assay type: in vivo, Beagle dogs; conditions: Groups 2-4; mitigated by Day 4, further reduced by Day 7
Experimental: In order to further refine the dosing regimen that would provide an appropriate blood profile of capromorelin and desired results from the perspective of increased food intake and weight gain, an additional series of experiments were conducted. In these experiments, twenty-four adult (male and female) Beagle dogs weighing approximately 9 to 13 kilograms were randomly divided into four groups. Group 1 received a placebo formulation, without any active compound, two times per day; Group 2 received a composition comprising 3 mg/kg of body weight of capromorelin one time per day; Group 3 received a composition comprising 4.5 mg/kg of body weight of capromorelin one time per day; and Group 4 received a composition comprising 3 mg/kg of body weight of capromorelin two times per day. […]
In these experiments, the animals were orally administered the flavored formulation at approximately 8:00 AM and, for Group 4 only, again at 6:00 PM. […] Food consumption was calculated and recorded on Days −7 through Day 7. Baseline food consumption was calculated for each individual dog as the average number of grams of food consumed on Days −3, −2, and −1. The study period food consumption was calculated for each individual dog as the average of Days 1 through 7. […]

[4] = Group 1, intravenous 0.75 mg/kg
[5] = oral gavage, once-daily 6 mg/kg or twice-daily 3 mg/kg, 7 days

CN1N=C2CCN(C(=O)[C@@H](COCc3ccccc3)NC(=O)C(C)(C)N)C[C@@]2(Cc2ccccc2)C1=O.O=C(O)C(O)C(O)C(=O)O [capromorelin]
peak in serum concentration of capromorelin [1, 4]: around 625 ng/mL
time post administration of peak serum concentration [1, 4]: around 5 minutes
peak in serum concentration of capromorelin ([1]; Group 2, oral gavage 3 mg/kg): around 150 ng/mL
time post administration of peak serum concentration ([1]; Group 2, oral gavage 3 mg/kg): around 2 hours
clearance ([1]; cat, serum, Group 1, intravenous 0.75 mg/kg, read-out: clearance of capromorelin): ~30 mL/min/kg
half-life ([1]; cat, serum, Group 1, intravenous 0.75 mg/kg, read-out: terminal half-life of capromorelin (converted)): ~54 min
Cmax ([1]; cat, serum, Group 2, oral gavage 3 mg/kg): 149 ng/mL
half-life ([1]; cat, serum, Group 2, oral gavage 3 mg/kg, read-out: mean-terminal half-life (converted)): 62.4 min
increase in weight over the seven day treatment period ([2]; male dogs, once-daily 6 mg/kg or twice-daily 3 mg/kg oral gavage): 4-5%
food consumed relative to dogs receiving deionized water only [2, 5]: consumed more food
weight gain relative to dogs receiving deionized water only [2, 5]: gained more weight
toxicological responses [3]: no toxicological responses were noted
growth hormone in the serum (growth hormone): increase in growth hormone in the serum on Day 1
